Test results published in patent publication US6448224B1, “Antibiotics and methods of using the same” (priority 1998, dated 2002).

Experiments:
pneumococcal strain R6 = assay: Cell growth curves (OD 620 nm) of R6 cultures with or without test reagents; assay type: cell-based, Streptococcus pneumoniae; conditions: for ability to inhibit R6 growth (FIG. 5): 100 μM peptide added to growing R6 at OD 620 nm of 0.1
Procedure: Cell growth curves were performed in the presence or absence of the test reagents as specified. In short, samples were prepared as follows: 1 ml of a pneumococcus culture was placed into 10 ml of prewarmed Semisynthetic (C+Y) medium. The optical density (OD) of the bacteria was monitored at 620 nm until an OD of approximately 0.1 was reached. At this point the test reagents were administered to the samples. The cells were cultured for up to 11 hours at 37° Celsius, and the OD at 620 nm was monitored every hour. A decrease in OD 620 is indicative of cell lysis, an increase is indicative of bacterial growth. No change in optical density indicates growth inhibition.
The peptide having amino acid sequence SEQ ID NO:2 was chemically synthesized and tested for growth inhibiting, killing and lytic activity in Streptococcus pneumoniae cultures. To characterize the antibacterial activity of the peptide, pneumococcal strain R6 which is sensitive to penicillin was exposed to 0.1 mM of the peptide having the amino acid sequence of SEQ ID NO:2 at an optical density of 0.01 (bacterial density of 3×10^6 cfu/ml). Bacterial growth as measured by optical density was followed for 11 hours and viability was assessed by plating on blood agar. […] Four hours after the start of the experiment, the control strain grew from 3×10^6 to 1.2×10^7 cfu/ml. In contrast, four hours after addition of the peptide, the viable bacterial number decreased from 3×10^6 to 3×10^4 CFU/ml (10^3-fold lower than the control).
The fact that the peptide is active in the range below 1 μg/ml places the potency of its antibacterial effect in the same range as conventional antibiotics.
R6 with no peptide was the control and underwent exponential growth.

[1] = test system: loss of function mutants of the ABC transporter and RR/HK; assay: Tolerance of loss of function mutants in ABC transporter and RR/HK to antibiotics; assay type: cell-based, S. pneumoniae; conditions: all 3 mutants; growth inhibitory concentrations
Text: As described in Example 6, using insertion duplication mutagenesis, loss of function mutations were obtained in each of the 3 open reading frames of the ABC transporter and each of the two parts of the RR/HK. […] These parallel phenotypes further implicate these topographically close genes in a common pathway.
Vancomycin is the only antibiotic that maintains efficacy against many strains of highly antibiotic resistant bacteria, such as staphylococci, enterococci and pneumococci. Escape from antibiotic activity of vancomycin has been detected in rare staphylococci and enterococci but not in pneumococci as yet. […] Infect. Dis. J., 12:196-200 (1993); Marton et al., J. Infect. Dis., 163:542-8 (1991); and Bradley et al., Pediatr. Infect. Dis., 14:1037-1041(1995)]. […] If they created a phenotype which was corrected by exogenous peptide, they may participate in the biological activity of the peptide. For instance, the ABC transporter may transport the peptide and the HK may serve as an extracellular receptor for the peptide which then changes the behavior of the bacteria (i.e. killing) via a RR signal.

[2] = test system: Orf W1 insertion duplication mutant of R6x; assay: Phenotypes of the mutants: lysis, Orf W1 mutant; assay type: cell-based, S. pneumoniae
Procedure: (§1) Bacterial strains and growth conditions: The parental strain of S. pneumoniae used in these studies was R6x [Tiraby et al., Proc. Natl. Acad. Sci. USA., 70:3541-3545 (1973)], a derivative of the unencapsulated Rockefeller strain R36A [Avery et al., J. Ex. Med., 79:137-158 (1944)]. Pneumococci were routinely grown on tryptic soy agar (TSA, Difco) supplemented with sheep blood to a final concentration of 3% (v/v). For growth in liquid culture, the bacteria were grown in a semi-synthetic casein hydrolysate medium supplemented with yeast extract (C+Y, [Lacks et al., Biochem. Biophys. Acta., 39:508-517 (1960)]). For the selection and maintenance of pneumococci containing chromosomally integrated plasmids, bacteria were grown in the presence of 1 μg/ml erythomycin and/or 250 μg/ml kanamycin.
(§2) Construction of mutations: Insertion duplication mutagenesis was carried out using PCR to generate gene fragments for homologous recombination proximal to the amino terminus of Orf W1, HK or RR as follows:
OrfW1: 435 bp gene fragment spanning residues 473 (EcoR1 site) to 908 (BamH1 site) of SEQ ID NO:21.
(§3) Phenotypes of the mutants: The mutants were assessed for various physiological functions characteristic of pneumococci. This included lysis by penicillin, vancomycin, and the detergent deoxycholate (DOC). Other capabilities tested included ability to undergo natural DNA transformation (Transform) and expression of the LytA protein as assessed by Western blot. All mutants grew at the normal 30-40 minute doubling time and formed the classical diplococcal morphology.

[3] = test system: clinical isolate F79 (mutations in HK and ABC transporter genes); assay: Lysis of clinical isolate F79 cells; assay type: cell-based, pneumococcus; conditions: 10×MIC penicillin and/or 0.5 mM peptide
Procedure: (§4) FIGS. 11A-11B show the effects of 10×MIC of penicillin and/or 0.5 mM of the peptide having the amino acid sequence of SEQ ID NO:2 on the lysis of clinical isolate F79 cells (FIG. 11A) and HK mutant VanS cells (FIG. 11B).
(§5) F79 is a natural isolate of pneumococcus with mutations in the HK and the ABC transporter genes as determined by SSCP (see Example 11). This strain is tolerant to penicillin and vancomycin.

[4] = test system: RR insertion duplication mutant of R6x; assay: Phenotypes of the mutants: lysis, RR mutant; assay type: cell-based, S. pneumoniae
Procedure: as §1, §2
RR: 371 bp gene fragment spanning residues 142 (EcoR1 site) to 513 (BamH1 site) of SEQ ID NO:15.
as §3

[5] = test system: HK insertion duplication mutant of R6x; assay: Phenotypes of the mutants: lysis, HK mutant; assay type: cell-based, S. pneumoniae
Procedure: as §1, §2
HK: 411 bp gene fragment spanning residues 279 (EcoR1 site) to 690 (BamH1 site) of SEQ ID NO:13.
as §3

clinical isolate A144 = assay: Cell viability (CFU/ml) of clinical isolate A144 one hour after addition; assay type: cell-based, pneumococcus; conditions: 10×MIC penicillin, 10×MIC vancomycin or 0.4 mM peptide
Text: Tolerance to penicillin occurs in bacteria that fail to trigger autolysins in response to the drug. […] This is a mechanism of resistance to these drugs and is a serious emerging medical problem. […] However, one pneumococcal strain that fails to lyse and dies slowly in response to both penicillin and vancomycin is the clinical isolate A144. This combination of traits makes A144 recalcitrant to therapy. FIG. 8 compares the activity of penicillin, vancomycin, and the peptide against a classical sensitive strain, R6, and the tolerant strain A144. […] In contrast, strain A144 loses only 0.5 logs of viability in the same time period for all three therapies. […] Thereafter the bacteria grew more slowly than untreated controls.

[6] = test system: pneumococcus R6, non-growing; assay: Lysis of R6 cells under starvation conditions (medium lacking lysine); assay type: cell-based; conditions: 10×MIC penicillin and/or 0.5 mM peptide
Text: When bacteria grow slowly or stop growing due to nutrient deprivation, they become tolerant to antibiotics of all classes. […] This prolongs the course of antibiotics needed to treat these infections. For instance, many weeks of therapy are required to treat endocarditis and osteomyelitis secondary to slowly growing bacteria. An in vitro example of phenotypic tolerance is shown in FIG. 10 where pneumococcus R6 has been transferred at time 0 to a medium lacking the essential amino acid lysine. Penicillin was added 5 min after the transfer. […] This same response is seen with the peptide.

HK mutant strain Van S = assay: Lysis of HK mutant VanS cells; assay type: cell-based, pneumococcus; conditions: 10×MIC penicillin and/or 0.5 mM peptide
Procedure: as §4, §5

Compound | ability to inhibit R6 growth (FIG. 5) (pneumococcal strain R6) | Lysis by [2] | Lysis by [4] | Lysis by [5] | also measured
LADKRPARDYN (listed as Streptococcus pneumoniae) [Peptide 5] | Exponential growth equal to untreated bacteria | – | – | – | –
MEFMRKEFHNVLSSGQLLADKRPARDYN (listed as Streptococcus pneumoniae) [SEQ ID NO:12] | – | – | – | – | antibacterial activity against R6 (pneumococcal strain R6): no antibacterial activity
MRKEFHNVLSSGQLLADKRPARDAN [Peptide 2] | greatly decreased anti-bacterial activity | – | – | – | –
CN[C@H](CC(C)C)C(=O)N[C@H]1C(=O)N[C@@H](CC(N)=O)C(=O)N[C@H]2C(=O)N[C@H]3C(=O)N[C@H](C(=O)N[C@H](C(=O)O)c4cc(O)cc(O)c4-c4cc3ccc4O)[C@H](O)c3ccc(c(Cl)c3)Oc3cc2cc(c3O[C@@H]2O[C@H](CO)[C@@H](O)[C@H](O)[C@H]2O[C@H]2C[C@](C)(N)[C@H](O)[C@H](C)O2)Oc2ccc(cc2Cl)[C@H]1O [Vancomycin, vancomycin] | – | tolerant | sensitive | tolerant | lysis and death / tolerance of the mutants [1]: exhibited tolerance; lysis / tolerance of F79 [3]: tolerant; loss of viability of A144 within one hour (clinical isolate A144): 0.5 logs
penicillin | – | tolerant | sensitive | tolerant | lysis and death / tolerance of the mutants [1]: failed to lyse and die; lysis of growing R6 (pneumococcal strain R6; 10×MIC, normal growth): lyses R6 within one hour; lysis / tolerance of F79 [3]: tolerant; lysis response of non-growing R6 [6]: only a minimal response; viability of non-growing R6 [6]: unaffected; loss of viability of A144 within one hour (clinical isolate A144): 0.5 logs; lysis / tolerance of strain Van S (HK mutant strain Van S): tolerance
MRKEFHNVLSAGQLLADKRPARDYN [Peptide 3] | greatly enhanced antibacterial effect | – | – | – | –
deoxycholate [DOC] | – | no | yes | yes | –
MRKEFHNVLSSGQLLADKRPARDYNRK (listed as Streptococcus pneumoniae) [Peptide 6] | the same effect | – | – | – | –
MRKEFHNVLSSGQL (listed as Streptococcus pneumoniae) [Peptide 4] | Exponential growth equal to untreated bacteria | – | – | – | –
